# Data taken from patent publication US11103605B2, “PET-imaging immunomodulators” (BRISTOL-MYERS SQUIBB COMPANY, priority 2016, dated 2021).
# Experiment: Stability of reconstituted [^18F]-FPPEGA in 1× PBS buffer
# Format: physicochemical
# Conditions: 37° C.
# Method: An aqueous [^18F]-Fluoride solution (2.0 ml, 33.3 GBq/900 mCi) was purchased from P.E.T. Net® Pharmaceuticals in West Point PA and directly transferred to a Sep-Pak light QMA [The Sep-Pak light QMA cartridge was pre-conditioned sequentially with 5 ml of 0.5 M potassium bicarbonate, 5 ml of deionized water, and 5 ml of MeCN before use.] Upon completion of this transfer, the aqueous [^18F] fluoride was released from the QMA Sep-Pak by the sequential addition of potassium carbonate (15 mg/ml; 0.1 ml) followed by a mixture of potassium carbonate (30 mg/ml, 0.1 ml), 4,7,13,16,21,24-hexaoxa-1,10-diazabicyclo[8.8.8]hexacosane (15 mg, 0.04 mmol) and 1.2 ml of MeCN. The solvent was evaporated under a gentle stream of nitrogen at 90° C. and vacuum. Azeotropic drying was repeated twice with 1 ml portions of acetonitrile to generate the anhydrous K.2.2.2/K[^18F]F complex. […] The entire contents of the crude reaction mixture was then transferred, loaded, and purified using reverse phase HPLC under the following conditions: HPLC Column: Luna C18 250×10 Solvent A: 0.1% TFA in DI water; solvent B: 0.1% TFA in acetonitrile at a flow rate of 4.6 ml/minute using isocratic method 32% B while the UV was monitored at 280 nm. […]
smiles,measurement,value
[N-]=[N+]=NCCOCCOCCOCCOc1cccnc1[18F] [[^18F]-3-(2-(2-(2-(2-azidoethoxy)ethoxy)ethoxy)ethoxy)-2-fluoropyridine],stable in 100% 1× PBS buffer,over 1 hour
